Test results taken from patent publication US20260234147A1 (priority 2023, published 2026).
Where two headings read alike, the source gives them in different places.

Columns and labels:
hMOR [1] = molecular target: T1, hMOR (Homo sapiens, UniProt P35372); assay: cell-based; set-up: expressed in transfected cells
hMOR [2] = molecular target: T1, hMOR; assay: Radioligand binding assay (Eurofins Cerep), [3H]DAMGO displacement
hDOR = hDOR (Homo sapiens, UniProt P41143); assay: Radioligand binding assay (Eurofins Cerep), [3H]DADLE displacement; conditions: read-out: DOR Ki ± SEM
hKOR = hKOR (Homo sapiens, UniProt P41145); assay: Radioligand binding assay (Eurofins Cerep), [3H]U69,593 displacement; conditions: read-out: KOR Ki ± SEM
α2A adrenergic receptor = molecular target: T2, α2A adrenergic receptor (Homo sapiens, UniProt P08913); assay: Radioligand binding assay (Eurofins Cerep), [3H]RX 821002 displacement; conditions: read-out: Alpha2A Ki ± SEM
T2 construct: Eurofins Cerep (contract screening)
T2 sequence (P08913 1-465): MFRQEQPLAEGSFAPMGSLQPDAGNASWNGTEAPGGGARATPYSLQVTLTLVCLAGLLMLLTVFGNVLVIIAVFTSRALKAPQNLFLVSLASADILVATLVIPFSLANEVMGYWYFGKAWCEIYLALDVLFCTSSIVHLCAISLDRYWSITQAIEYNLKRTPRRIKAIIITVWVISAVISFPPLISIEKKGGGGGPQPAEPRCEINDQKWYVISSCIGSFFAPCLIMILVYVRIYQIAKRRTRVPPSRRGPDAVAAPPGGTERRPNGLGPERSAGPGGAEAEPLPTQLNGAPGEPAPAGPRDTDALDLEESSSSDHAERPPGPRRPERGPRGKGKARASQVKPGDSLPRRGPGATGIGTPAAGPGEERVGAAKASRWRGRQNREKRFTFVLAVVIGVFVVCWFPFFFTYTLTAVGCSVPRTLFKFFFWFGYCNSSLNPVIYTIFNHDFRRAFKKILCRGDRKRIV

[3] = Metabolic stability in rat liver microsomes; format: in vitro ADME; conditions: for Whole liver clearance, CL int, H: in vitro intrinsic clearance in RLM scaled to whole organ (rat); for RLM stability: rat liver microsomes 1 mg/ml, substrate 1 μM, NADPH, 37° C.
Description: In vitro metabolic stability of each compound was determined using rat liver microsomes in triplicate. Verapamil was used as a positive control to check the activity of the microsomes. The incubation mixtures consisted of rat liver microsomes (1 mg microsomal protein/ml), substrate (1 μM), and reduced NADPH (1 mM) in a total volume of 0.4 ml potassium phosphate buffer (50 mM, pH 7.4). Reactions were initiated with the addition of NADPH and kept in an incubator shaker at 37° C. Aliquots of 25 μl were withdrawn at 0, 5, 10, 15, 30, and 60 min and mixed with 125 μl of acetonitrile with formic acid (0.1% v/v) containing phenacetin (50 ng/ml; internal standard) for the termination of the reaction. The samples were then vortex mixed and filtered through a […] 96-well membrane filtration plate under centrifugation at speed of 2000×g for 5 min at 4° C. The filtrates were subjected to UPLC-mass spectrometry (MS/MS) analysis.
The intrinsic clearance of the compounds was calculated using a half-life employing the ‘substrate depletion’ approach. The apparent half-life was calculated from the pseudo-first-order rate constants obtained by linear regression of log (concentration) and time plots. The in vitro intrinsic clearance of IFN was estimated using the formula: […]
Where k is the slope of the line obtained by plotting the natural logarithmic of the percentage of parent remaining versus time and V is the volume of incubation.
The in vitro intrinsic clearance was scaled to whole-organ (hepatic) in vivo intrinsic CL (CLint,H) using the scaling factors available in the literature using equation (Mahmood I. Application of allometric principles for the prediction of pharmacokinetics in human and veterinary drug development. Advanced drug delivery reviews, 2007, 59(11), 1177-1192)
MPPGL represents the microsomal protein per gram of Sprague Dawley rat liver (45 mg/g) and liver weight per kg body weight was 40 g/kg.

[4] = Table A1, data summary #1, read-out: MOR Ki ± SEM
[5] = Table A4, data summary #2, read-out: MOR Ki ± SEM

Sequence of hDOR (P41143 whole entry): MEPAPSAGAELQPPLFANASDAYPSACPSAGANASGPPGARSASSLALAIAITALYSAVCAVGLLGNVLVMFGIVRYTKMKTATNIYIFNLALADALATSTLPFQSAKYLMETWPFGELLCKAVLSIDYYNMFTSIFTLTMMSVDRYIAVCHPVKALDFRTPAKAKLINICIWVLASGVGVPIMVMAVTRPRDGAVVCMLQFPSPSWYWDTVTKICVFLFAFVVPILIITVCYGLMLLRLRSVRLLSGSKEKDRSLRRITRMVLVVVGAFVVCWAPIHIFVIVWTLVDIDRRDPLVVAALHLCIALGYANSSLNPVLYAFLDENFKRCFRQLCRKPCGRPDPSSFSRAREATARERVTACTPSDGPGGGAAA
Sequence of hKOR (P41145 whole entry): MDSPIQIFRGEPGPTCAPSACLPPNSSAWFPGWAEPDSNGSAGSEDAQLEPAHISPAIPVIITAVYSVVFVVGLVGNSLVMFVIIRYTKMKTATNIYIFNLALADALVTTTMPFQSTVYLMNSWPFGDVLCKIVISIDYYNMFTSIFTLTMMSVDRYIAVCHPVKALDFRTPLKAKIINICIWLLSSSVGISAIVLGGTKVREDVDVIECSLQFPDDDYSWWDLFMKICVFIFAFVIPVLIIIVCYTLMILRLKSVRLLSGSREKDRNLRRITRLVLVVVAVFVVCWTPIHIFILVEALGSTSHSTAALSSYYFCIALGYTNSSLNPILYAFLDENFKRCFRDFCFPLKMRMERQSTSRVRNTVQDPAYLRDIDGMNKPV
T1 sequence (P35372 whole entry): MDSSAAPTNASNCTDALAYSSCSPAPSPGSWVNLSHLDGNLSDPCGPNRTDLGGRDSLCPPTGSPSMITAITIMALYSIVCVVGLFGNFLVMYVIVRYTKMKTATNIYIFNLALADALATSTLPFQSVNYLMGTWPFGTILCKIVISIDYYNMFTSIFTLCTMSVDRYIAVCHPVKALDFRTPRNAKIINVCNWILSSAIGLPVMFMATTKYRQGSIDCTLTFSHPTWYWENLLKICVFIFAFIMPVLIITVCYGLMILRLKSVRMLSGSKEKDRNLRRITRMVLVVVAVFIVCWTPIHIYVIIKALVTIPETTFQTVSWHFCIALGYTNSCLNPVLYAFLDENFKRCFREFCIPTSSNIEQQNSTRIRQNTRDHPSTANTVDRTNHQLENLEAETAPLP

Structure (SMILES) | Emax (hMOR [1]; CHO, read-out: MOR Emax ± SEM (%)) | MOR Emax ± SEM (% DAMGO) (hMOR [1]; Table A1, data summary #1) | Ki (hMOR [2]; [4]) | Ki (hDOR; Table A1, data summary #1) | Ki (hKOR; Table A1, data summary #1) | Ki (α2A adrenergic receptor; Table A1, data summary #1) | Ki (α2A adrenergic receptor; Table A4, data summary #2) | Ki (hMOR [2]; [5]) | Whole liver clearance, CL int, H [3] | RLM stability [3] | Ki (hDOR; Table A4, data summary #2) | Ki (hKOR; Table A4, data summary #2) | Ki (hMOR [2]; read-out: Ki at hMOR)
C[C@@H](NC(=O)[C@@H](N)Cc1ccc(O)cc1)C(=O)NCC(=O)N(C)[C@@H](Cc1ccccc1)C(=O)NCCO [DAMGO, reference compound] | 106 ± 2% | – | – | – | – | – | – | – | – | – | – | – | –
CC[C@@H]1CN2CC[C@]3(Nc4cccc(OC)c4C3=O)[C@@H]2C[C@@H]1/C(=C\OC)C(=O)OC [Mitragynine pseudoindoxyl, reference compound] | – | 42.4 % DAMGO | 0.0013 µM | 0.00293 µM | 0.15 µM | – | – | – | – | – | – | – | –
CC[C@@H]1CN2CCc3c([nH]c4cccc(OC)c34)[C@@H]2C[C@@H]1/C(=C\OC)C(=O)NC [SUSM-25, (E)-2-((2S,3S,12bS)-3-ethyl-8-methoxy-1,2,3,4,6,7,12,12b-octahydroindolo[2,3-a]quinolizin-2-yl)-3-methoxy-N-methylacrylamide] | – | – | 4.02 ± 0.728 µM | > 10 µM | > 10 µM | 7.04 ± 1.82 µM | 6.74 ± 1.91 µM | 3.52 ± 0.763 µM | 8.9 mL/min/kg | >60 min | > 10 µM | > 10 µM | –
CCCNC(=O)/C(=C/OC)[C@H]1C[C@H]2c3[nH]c4cccc(OC)c4c3CCN2C[C@H]1CC [SUSM-27, (E)-2-((2S,3S,12bS)-3-ethyl-8-methoxy-1,2,3,4,6,7,12,12b-octahydroindolo[2,3-a]quinolizin-2-yl)-3-methoxy-N-propylacrylamide] | – | – | 4.56 ± 0.692 µM | > 10 µM | > 10 µM | 2.73 ± 1.26 µM | 6.45 ± 2.59 µM | 4.56 ± 0.692 µM | 20.8 mL/min/kg | >60 min | > 10 µM | > 10 µM | –
CCNC(=O)/C(=C/OC)[C@H]1C[C@H]2c3[nH]c4cccc(OC)c4c3CCN2C[C@H]1CC [SUSM-32, (E)-N-ethyl-2-((2S,3S,12bS)-3-ethyl-8-methoxy-1,2,3,4,6,7,12,12b-octahydroindolo[2,3-a]quinolizin-2-yl)-3-methoxyacrylamide] | – | – | 4.22 ± 0.752 µM | > 10 µM | > 10 µM | 4.29 ± 1.12 µM | 3.87 ± 0.984 µM | 4.22 ± 0.752 µM | 11.4 mL/min/kg | >60 min | > 10 µM | > 10 µM | –
CC[C@@H]1CN2CCc3c([nH]c4cccc(OC)c34)[C@@H]2C[C@@H]1/C(=C\OC)C(=O)NC1CCCC1 [SUSM-506, (E)-N-cyclopentyl-2-((2S,3S,12bS)-3-ethyl-8-methoxy-1,2,3,4,6,7,12,12b-octahydroindolo[2,3-a]quinolizin-2-yl)-3-methoxyacrylamide] | – | – | 1.38 ± 0.176 µM | > 10 µM | 5.85 ± 0.657 µM | 8.97 ± 0.572 µM | 5.75 ± 0.568 µM | 1.38 ± 0.176 µM | 36.4 mL/min/kg | 30 min | > 10 µM | 5.85 ± 0.657 µM | –
CC[C@@H]1CN2CCc3c([nH]c4cccc(OC)c34)[C@@H]2C[C@@H]1/C(=C\OC)C(=O)N1CCCC1 [SUSM-507, (E)-2-((2S,3S,12bS)-3-ethyl-8-methoxy-1,2,3,4,6,7,12,12b-octahydroindolo[2,3-a]quinolizin-2-yl)-3-methoxy-1-(pyrrolidin-1-yl)prop-2-en-1-one] | – | – | 0.655 ± 0.0766 µM | > 10 µM | > 10 µM | 9.85 ± 1.57 µM | 4.99 ± 1.02 µM | 0.655 ± 0.0766 µM | 833.8 mL/min/kg | <5 min | 6.26 ± 3.17 µM | > 10 µM | –
CC[C@@H]1CN2CCc3c([nH]c4cccc(OC)c34)[C@@H]2C[C@@H]1/C(=C\OC)C(=O)N(CC)CC [SUSM-509, (E)-N,N-diethyl-2-((2S,3S,12bS)-3-ethyl-8-methoxy-1,2,3,4,6,7,12,12b-octahydroindolo[2,3-a]quinolizin-2-yl)-3-methoxyacrylamide] | – | – | 1.13 ± 0.0738 µM | > 10 µM | > 10 µM | 5.2 ± 0.621 µM | 2.73 ± 0.488 µM | 1.13 ± 0.0738 µM | – | <5 min | > 10 µM | > 10 µM | –
CC[C@@H]1CN2CCc3c([nH]c4cccc(OC)c34)[C@@H]2C[C@@H]1/C(=C\OC)C(=O)N1CCCCC1 [SUSM-518, (E)-2-((2S,3S,12bS)-3-ethyl-8-methoxy-1,2,3,4,6,7,12,12b-octahydroindolo[2,3-OMea]quinolizin-2-yl)-3-methoxy-1-(piperidin-1-yl)prop-2-en-1-one] | – | – | – | > 10 µM | 7.46 ± 1.42 µM | – | 0.523 ± 0.155 µM | 0.244 ± 0.055 µM | – | <5 min | > 10 µM | 7.46 ± 1.42 µM | 0.129 µM
CC[C@@H]1CN2CCc3c([nH]c4cccc(OC)c34)[C@@H]2C[C@@H]1/C(=C\OC)C(=O)NC1CCCCC1 [SUSM-519, (E)-N-cyclohexyl-2-((2S,3S,12bS)-3-ethyl-8-methoxy-1,2,3,4,6,7,12,12b-octahydroindolo[2,3-a]quinolizin-2-yl)-3-methoxyacrylamide] | – | – | 3.59 ± 0.663 µM | > 10 µM | 2.79 ± 0.64 µM | – | 0.933 ± 0.242 µM | 2.18 ± 0.603 µM | 38.4 mL/min/kg | 30 min | > 10 µM | 2.79 ± 0.64 µM | –
CC[C@@H]1CN2CCc3c([nH]c4cccc(OC)c34)[C@@H]2C[C@@H]1/C(=C\OC)C(=O)N(C)CC [SUSM-520, (E)-N-ethyl-2-((2S,3S,12bS)-3-ethyl-8-methoxy-1,2,3,4,6,7,12,12b-octahydroindolo[2,3-a]quinolizin-2-yl)-3-methoxy-N-methylacrylamide] | – | – | 0.459 ± 0.0407 µM | > 10 µM | 4.78 ± 1.14 µM | – | 0.938 ± 0.223 µM | 0.452 ± 0.033 µM | 879.7 mL/min/kg | <5 min | > 10 µM | 4.78 ± 1.14 µM | –
CCCN(C)C(=O)/C(=C/OC)[C@H]1C[C@H]2c3[nH]c4cccc(OC)c4c3CCN2C[C@H]1CC [SUSM-521, (E)-2-((2S,3S,12bS)-3-ethyl-8-methoxy-1,2,3,4,6,7,12,12b-octahydroindolo[2,3-a]quinolizin-2-yl)-3-methoxy-N-methyl-N-propylacrylamide] | – | – | – | 5.89 ± 0.105 µM | 2.61 ± 0.588 µM | – | 1.51 ± 0.676 µM | 0.222 ± 0.033 µM | – | <5 min | 4.03 ± 0.797 µM | 2.61 ± 0.588 µM | 0.167 µM
